These results are taken from PubChem BioAssay (NCI).

Where “and” joins values, the source holds several entries; their conditions need not be identical. Equal values may be shown once.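 Each compound was tested at five concentrations against cells in 96-well plates for 48 hours. Abbreviation: GI50, concentration required for 50% inhibition of growth. TGI marks complete inhibition of growth.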 Some results are limits rather than exact numbers.

Among the test systems are ACHN renal; HS 578T breast; M14 melanoma; MDA-MB-231 breast; NCI-H460 lung; OVCAR-4 ovarian; OVCAR-8 ovarian; SK-MEL-2 melanoma; A498 renal; SNB-75 CNS.
What all share (assay): NCI-60 cell line screen, 48 h

For `COc1cc(/C=C2/C(=O)N(C(=O)c3ccccc3O)N=C2C)ccc1O`, the TGI was over 100 µM with ACHN renal; over 100 µM in the test on HS 578T breast; 35.3 µM in the test on M14 melanoma; over 100 µM with MDA-MB-231 breast; over 100 µM in the test with NCI-H460 lung; over 100 µM in the test with OVCAR-4 ovarian. Moreover, the TGI in the test on OVCAR-8 ovarian and with SK-MEL-2 melanoma was over 100 µM in each case.

As for `COc1ccc2nc3cc(Cl)ccc3c(Nc3ccc(O)c(CN4CCCC4)c3)c2c1`, the GI50 in the test on A498 renal was 2.89 µM; with ACHN renal, 1.74 µM; with M14 melanoma, 1.89 µM; in the test on MDA-MB-231 breast, 1.66 µM; with NCI-H460 lung, 2.46 µM; in the test with OVCAR-4 ovarian, 2.7 µM. Moreover, the GI50 with OVCAR-8 ovarian was 2.01 µM; in the test with SK-MEL-2 melanoma it was 1.99 µM; in the test on SNB-75 CNS, 1.99 µM. Further, the TGI in the test with A498 renal is 12.2 µM; in the test on ACHN renal, 3.18 µM; in the test with M14 melanoma, 3.54 µM; with MDA-MB-231 breast, 3.84 µM; in the test with NCI-H460 lung it was 6.15 µM; in the test on OVCAR-4 ovarian, 8.24 µM. Besides, the results for the TGI in the test with OVCAR-8 ovarian, in the test on SK-MEL-2 melanoma and with SNB-75 CNS were 4.87 µM, 3.77 µM and 3.79 µM, respectively.

On to `C=C1C(=O)C23CC1CCC2C12CO[C@@]3(O)[C@@H](O)C1C(C)(C)C=CC2=O` (stereo not given in full), for which the GI50 in the test on ACHN renal was 3.36 µM; with NCI-H460 lung, 14.7 µM; in the test with OVCAR-8 ovarian, 3.37 µM; in the test on SNB-75 CNS, 13.6 µM. Further, the TGI was 1.42 µM and 11.5 µM with ACHN renal; 81.6 µM in the test on HS 578T breast; 6.1 µM in the test on M14 melanoma; 12 µM in the test with MDA-MB-231 breast; 1.99 µM in the test on SK-MEL-2 melanoma; 12.7 µM and 26.4 µM in the test on SNB-75 CNS.

As for `Cc1cc(S(N)(=O)=O)c(S/C(=N\NS(=O)(=O)c2ccccc2)c2ccc(Cl)c(Cl)c2)cc1Cl`, the GI50 is 35 µM with A498 renal; 30 µM with ACHN renal; 29.9 µM in the test on HS 578T breast; 92.3 µM in the test on M14 melanoma; 28.7 µM in the test with MDA-MB-231 breast; 29.5 µM with NCI-H460 lung. The values for the GI50 with OVCAR-4 ovarian, with OVCAR-8 ovarian and in the test on SK-MEL-2 melanoma were 40.6 µM, 32.3 µM and over 100 µM, respectively. Further, the TGI in the test with A498 renal is 87.1 µM; in the test on ACHN renal it was 92.7 µM; with HS 578T breast, 99.3 µM; in the test with M14 melanoma, over 100 µM; in the test on MDA-MB-231 breast, over 100 µM; with NCI-H460 lung it was over 100 µM. Besides, the TGI in the test on OVCAR-4 ovarian, with OVCAR-8 ovarian and with SK-MEL-2 melanoma was over 100 µM throughout.

Take `Cc1ccc(NCCNCC(O)CO)c2c(=O)c3ccccc3sc12` (stereo not given): the GI50 in the test on ACHN renal was 1.29 µM; in the test on HS 578T breast, 2.19 µM; in the test on M14 melanoma, 1.55 µM; with MDA-MB-231 breast, 1.37 µM; in the test on NCI-H460 lung, 0.776 µM; in the test on OVCAR-4 ovarian, 1.86 µM. Also, the values for the GI50 in the test with OVCAR-8 ovarian, in the test on SK-MEL-2 melanoma and with SNB-75 CNS were 1.92 µM, 1.77 µM and 2.07 µM, respectively. In addition, the TGI with ACHN renal was found to be 3.07 µM; in the test on HS 578T breast, 5.9 µM; with M14 melanoma, 3.13 µM; with MDA-MB-231 breast, 3 µM; with NCI-H460 lung, 2.43 µM; in the test on OVCAR-4 ovarian, 4.68 µM. Moreover, the figures for the TGI in the test with OVCAR-8 ovarian, in the test on SK-MEL-2 melanoma and in the test on SNB-75 CNS were 4.77 µM, 3.49 µM and 11.5 µM, respectively.

Consider `Cc1ccc(S(=O)c2ccc([N+](=O)[O-])c3nonc23)cc1` (stereo not given), for which the GI50 in the test with A498 renal is 11.8 µM; with ACHN renal, 1.92 µM; in the test on HS 578T breast it was 21.1 µM; in the test on M14 melanoma, 11 µM; with MDA-MB-231 breast it was 10.1 µM; in the test with NCI-H460 lung, 17.7 µM. Also, the results for the GI50 in the test on OVCAR-4 ovarian, in the test with OVCAR-8 ovarian and in the test with SK-MEL-2 melanoma were 3.08 µM, 6.89 µM and 17.8 µM, respectively. The TGI with A498 renal turned out to be 26.4 µM; with ACHN renal, 3.75 µM; in the test with HS 578T breast, 60.2 µM; with M14 melanoma, 23.7 µM; in the test on MDA-MB-231 breast, 22.6 µM; in the test on NCI-H460 lung, 38.6 µM. The TGI in the test on OVCAR-4 ovarian is 9.24 µM; in the test on OVCAR-8 ovarian, 22.4 µM; in the test on SK-MEL-2 melanoma, 35.8 µM.

`N#Cc1c(-c2ccc(Cl)cc2)csc1NC(=O)Nc1cccc(C(F)(F)F)c1`: the GI50 in the test on A498 renal was 1.79 µM; in the test on ACHN renal, 2.23 µM; in the test on HS 578T breast, 3.25 µM; with M14 melanoma, 2.88 µM; with MDA-MB-231 breast, 1.78 µM; in the test on NCI-H460 lung, 2.76 µM. In addition, the GI50 with OVCAR-4 ovarian was 3.2 µM; in the test on SK-MEL-2 melanoma it was 2 µM; in the test with SNB-75 CNS, 2.01 µM. Further, the TGI is 4.3 µM in the test with A498 renal; 6.51 µM in the test on ACHN renal; 23.9 µM in the test with HS 578T breast; 10.1 µM with M14 melanoma; 3.72 µM in the test on MDA-MB-231 breast; 10.2 µM in the test with NCI-H460 lung. Moreover, the results for the TGI with OVCAR-4 ovarian, in the test on SK-MEL-2 melanoma and in the test with SNB-75 CNS were 14.4 µM, 4.57 µM and 12.7 µM, respectively.

With `Cc1nnc(N=Nc2c(O)[nH]c3ccccc23)[nH]c1=O`, the TGI with A498 renal, in the test with ACHN renal, in the test with HS 578T breast, in the test with M14 melanoma, in the test with MDA-MB-231 breast and in the test with NCI-H460 lung was over 100 µM each time. The TGI in the test on OVCAR-4 ovarian, in the test with OVCAR-8 ovarian and with SK-MEL-2 melanoma was over 100 µM in each case.

With `C#CCn1cc(C=C2C(=O)NC(=S)NC2=O)c2cc(Cl)ccc21`, the GI50 is 1.97 µM in the test with ACHN renal; 2.34 µM in the test on HS 578T breast; 2 µM in the test on M14 melanoma; 1.81 µM in the test on MDA-MB-231 breast; 2.29 µM in the test on NCI-H460 lung; 2.28 µM with OVCAR-4 ovarian. In addition, the figures for the GI50 with OVCAR-8 ovarian, with SK-MEL-2 melanoma and in the test with SNB-75 CNS were 2.72 µM, 2.41 µM and 1.37 µM, respectively. Also, the TGI in the test on ACHN renal was 4.07 µM; in the test with HS 578T breast, 7.6 µM; in the test on M14 melanoma, 4.76 µM; with MDA-MB-231 breast, 3.62 µM; with NCI-H460 lung, 5.12 µM; in the test with OVCAR-4 ovarian, 7.01 µM. Further, the TGI turned out to be 7.44 µM with OVCAR-8 ovarian, 5.91 µM in the test on SK-MEL-2 melanoma and 3.67 µM with SNB-75 CNS.
